Values of other authors as cited in paper PMC8730323 (The Journal of organic chemistry, 2021).

Key:
HL-60 cell line = conditions: read-out: IC50 against HL-60 cell line; leukemia cells
NCL-H460 cell line = conditions: read-out: IC50 against human lung cancer NCL-H460 cell line

Row | Molecule | Toxicity to normal cells compared with cancer cells (in words) (normal cells) | IC50 (HL-60 cell line) | IC50 (NCL-H460 cell line)
1 | Cc1c(O)cc(C[C@]23C[C@H](C[C@H](C)O2)c2c4c(c(O)c(C)c2O3)CO[C@@]2(C4)C[C@@H](O)C[C@H](C)O2)c(C=O)c1O [(+)-1, (+)-peniciketal A] | less toxic | 3.2 µM | –
2 | (−)-diocollettines A [(−)-5] | – | – | 20.2 µM
